Test system: Jurkat cells expressing TMEM16F-RFP
Test: TIRF live imaging of TMEM16F-positive vesicle movement at the TCR activation site
Assay type: cell-based
Conditions: Jurkat cells pretreated with 1 μM inhibitor for 30 min, stimulated on αCD3-coated coverslips, TIRF microscopy (FIGS. 7D, 7E)
Excerpt: TMEM16F is recruited to the immunological synapse and resides in late endosomes. To elucidate the molecular mechanism how TMEM16F controls T cell activation, its cellular localization and function were tracked. To this end, T cells transduced with fluorescent TMEM16F were cocultured with antigen-presenting B cells. […] Of note, TMEM16F appeared mainly in intracellular structures instead of the plasma membrane (FIG. 7A). […] In order to test the mechanics of TMEM16F-positive vesicle movement, TIRF live imaging was performed while modulating the functions of the cytoskeleton. […] By contrast, treatment with nocodazole that disrupts the microtubule network reduced migration of TMEM16F vesicles, indicating the movement of TMEM16F was largely mediated by microtubules but not actin (FIGS. 7D and 7E).
TIRF Microscopy. Sample preparation for TIRF microscopy was performed as previously reported with minor modifications (Bunnell et al., 2003). […]
Image Processing. […] The number of TMEM16F-positive spots was plotted using Prism 6.0™ Quantifications of LBPA-positive vesicles, LAT-GFP, and SH2-ZAP70-mCherry were done similarly. Intensity of SH2-ZAP70-mCherry was determined using intensity vs. time plug-in. For the colocalization of TMEM16F and Rab proteins, fluorescence intensity for each protein was measured on a line manually drawn along TMEM16F-positive vesicles, and values (pixel) were plotted. […]

| Structure (SMILES) | recruitment of TMEM16F to the T cell activation site / migration of TMEM16F vesicles |
| --- | --- |
| Cc1ccc2c(c1)C(=O)C1(O)CCN(c3ccccc3)C1=N2 (centres unmarked) [blebbistatin] | did not alter |
| COC(=O)Nc1nc2ccc(C(=O)c3cccs3)cc2[nH]1 [nocodazole] | reduced |

— patent US20190290728A1, “METHODS RELATED TO BREAKING T CELL EXHAUSTION” (CHILDREN'S MEDICAL CENTER CORPORATION, priority 2016, published 2019)
